In patent US20070117743A1, “New antitumoral compounds” (priority 2003, published 2007):
Where a SMILES comes first, the peptide text is derived from it. Bridges are numbered along the chain shown (N, C = ends). [ ]: non-standard residue; d: D form. The star is where a group is joined. d(aIle) = CC[C@H](C)[C@@H](N)C(=O)O; d(aThr) = C[C@@H](O)[C@@H](N)C(=O)O; Hexanoyl(5-Me) = CC(C)CCCC(=O)*; Orn = NCCC[C@H](N)C(=O)O; Dhb = C/C=C(\N)C(=O)O

Key:
Assay type in all cases: cell-based, human
A-549 = test: SRB colorimetric assay of cell growth and viability, A-549; settings: A-549, 48 hours exposure; for GI50: read-out: GI50 A-549; for CC50: read-out: LC50 A-549
SK-MEL-28 = test: SRB colorimetric assay of cell growth and viability, SK-MEL-28; settings: MEL-28, 48 hours exposure; for CC50: read-out: LC50 MEL-28
HT-29 = test: SRB colorimetric assay of cell growth and viability, HT-29; settings: HT-29, 48 hours exposure; for GI50: read-out: GI50 HT-29; for CC50: read-out: LC50 HT-29
LoVo-Dox = test: SRB colorimetric assay of cell growth and viability, LoVo-Dox; settings: LOVO-DOX, 48 hours exposure; for CC50: read-out: LC50 LOVO-DOX
Method in brief: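 SRB staining (0.4% wt/vol in 1% acetic acid, 10 min, room temperature) of cells fixed with 50% TCA follows a 48-hour exposure to compound. Plating density is 5×10^3 cells/well, and the OD is taken at 490 nm.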

DU-145 = test: SRB colorimetric assay of cell growth and viability, DU-145; settings: DU-145; 48 hours exposure
LNCaP = test: SRB colorimetric assay of cell growth and viability, LNCaP; settings: LN-caP, 48 hours exposure; for CC50: read-out: LC50 LN-caP
SK-BR-3 = test: SRB colorimetric assay of cell growth and viability, SK-BR-3; settings: SK-BR-3; 48 hours exposure
IGROV-1 = test: SRB colorimetric assay of cell growth and viability, IGROV-1; settings: IGROV; 48 hours exposure
IGROV-ET = test: SRB colorimetric assay of cell growth and viability, IGROV-ET; settings: IGROV-ET, 48 hours exposure; for CC50: read-out: LC50 IGROV-ET
HeLa = test: SRB colorimetric assay of cell growth and viability, HeLa; settings: HELA, 48 hours exposure; for CC50: read-out: LC50 HELA
HeLa-APL = test: SRB colorimetric assay of cell growth and viability, HeLa-APL; settings: HELA-APL, 48 hours exposure; for CC50: read-out: LC50 HELA-APL
K-562 = test: SRB colorimetric assay of cell growth and viability, K-562; settings: K-562, 48 hours exposure; for CC50: read-out: LC50 K-562
PANC-1 = test: SRB colorimetric assay of cell growth and viability, PANC-1; settings: PANC-1, 48 hours exposure; for CC50: read-out: LC50 PANC-1

SMILES	TGI A-549 (A-549)	GI50 (A-549)	CC50 (A-549)	GI50 (SK-MEL-28)	TGI MEL-28 (SK-MEL-28)	CC50 (SK-MEL-28)	TGI HT-29 (HT-29)	GI50 (HT-29)	CC50 (HT-29)	GI50 (LoVo-Dox)	TGI LOVO-DOX (LoVo-Dox)	CC50 (LoVo-Dox)	GI50 (DU-145)	LC50 (concentration causing 50% net cell kill) (DU-145)	TGI DU-145 (DU-145)	GI50 (LNCaP)	TGI LN-caP (LNCaP)	CC50 (LNCaP)	GI50 (SK-BR-3)	LC50 (SK-BR-3)	other results
C/C=C1\NC(=O)[C@H](Cc2ccccc2)NC(=O)[C@@H](C(C)C)NC(=O)[C@@H]([C@@H](C)CC)NC(=O)[C@H](NC(=O)[C@H](NC(=O)[C@H](CCCN)NC(=O)[C@H]2CCCN2C(=O)[C@H](NC(=O)[C@@H](NC(=O)CNC(=O)[C@H](NC(=O)CCCC(C)C)C(C)C)C(C)C)C(C)C)[C@@H](C)CC)[C@@H](C)OC(=O)[C@H](C(C)C)NC1=O [Compound 111, [Gly^12]-KF] ({Hexanoyl(5-Me)}-[dV]GV[dV][dP][Orn][d(aIle)][d(aThr)][d(aIle)][dV]F[Dhb]V; ester 8-C)	2.59E−06 Molar	1090 nM	6160 nM	250 nM	6.31E−07 Molar	2900 nM	2.59E−06 Molar	511 nM	6970 nM	324 nM	1.24E−06 Molar	4390 nM	725 nM	6970 nM	2.53E−06 Molar	400 nM	6.97E−06 Molar	6970 nM	410 nM	5940 nM	TGI SK-BR-3 (SK-BR-3): 1.54E−06 Molar; GI50 (IGROV-1): 167 nM; LC50 (concentration causing 50% net cell killing) (IGROV-1): 1330 nM; TGI IGROV (IGROV-1): 3.72E−07 Molar; GI50 (IGROV-ET): 264 nM; TGI IGROV-ET (IGROV-ET): 1.00E−06 Molar; CC50 (IGROV-ET): 6970 nM; GI50 (HeLa): 1260 nM; TGI HELA (HeLa): 2.94E−06 Molar; CC50 (HeLa): 6860 nM; GI50 (HeLa-APL): 355 nM; TGI HELA-APL (HeLa-APL): 1.21E−06 Molar; CC50 (HeLa-APL): 3510 nM; GI50 (K-562): 144 nM; TGI K-562 (K-562): 3.66E−07 Molar; CC50 (K-562): 2060 nM; GI50 (PANC-1): 453 nM; TGI PANC-1 (PANC-1): 1.71E−06 Molar; CC50 (PANC-1): 5810 nM
C/C=C1\NC(=O)[C@H](Cc2ccccc2)NC(=O)[C@@H](C(C)C)NC(=O)[C@@H]([C@@H](C)CC)NC(=O)[C@H](NC(=O)[C@H](NC(=O)[C@H](CCCN)NC(=O)[C@H]2CCCN2C(=O)[C@H](NC(=O)[C@@H](NC(=O)[C@H](C)NC(=O)[C@H](NC(=O)CCCC(C)C)C(C)C)C(C)C)C(C)C)[C@@H](C)CC)[C@@H](C)OC(=O)[C@H](C(C)C)NC1=O [Compound 112, [Ala^12]-KF] ({Hexanoyl(5-Me)}-[dV]AV[dV][dP][Orn][d(aIle)][d(aThr)][d(aIle)][dV]F[Dhb]V; ester 8-C)	2.87E−06 Molar	1450 nM	5640 nM	1390 nM	2.74E−06 Molar	5430 nM	2.26E−06 Molar	1150 nM	4450 nM	1110 nM	2.76E−06 Molar	6850 nM	1340 nM	5910 nM	2.82E−06 Molar	1190 nM	2.64E−06 Molar	5850 nM	3970 nM	6910 nM	TGI SK-BR-3 (SK-BR-3): 5.84E−06 Molar; GI50 (IGROV-1): 1310 nM; LC50 (concentration causing 50% net cell killing) (IGROV-1): 6910 nM; TGI IGROV (IGROV-1): 3.09E−06 Molar; GI50 (IGROV-ET): 1510 nM; TGI IGROV-ET (IGROV-ET): 3.44E−06 Molar; CC50 (IGROV-ET): 6910 nM; GI50 (HeLa): 739 nM; TGI HELA (HeLa): 2.41E−06 Molar; CC50 (HeLa): 6910 nM; GI50 (HeLa-APL): 1420 nM; TGI HELA-APL (HeLa-APL): 2.85E−06 Molar; CC50 (HeLa-APL): 5750 nM; GI50 (K-562): 2790 nM; TGI K-562 (K-562): 5.62E−06 Molar; CC50 (K-562): 6910 nM; GI50 (PANC-1): 1910 nM; TGI PANC-1 (PANC-1): 5.43E−06 Molar; CC50 (PANC-1): 6910 nM
C/C=C1\NC(=O)[C@H](Cc2ccccc2)NC(=O)[C@@H](C(C)C)NC(=O)[C@@H]([C@@H](C)CC)NC(=O)[C@H](NC(=O)[C@H](NC(=O)[C@H](CCCN)NC(=O)[C@H]2CCCN2C(=O)[C@H](NC(=O)[C@@H](NC(=O)[C@H](CC(C)C)NC(=O)[C@H](NC(=O)CCCC(C)C)C(C)C)C(C)C)C(C)C)[C@@H](C)CC)[C@@H](C)OC(=O)[C@H](C(C)C)NC1=O [Compound 113, [Leu^12]-KF] ({Hexanoyl(5-Me)}-[dV]LV[dV][dP][Orn][d(aIle)][d(aThr)][d(aIle)][dV]F[Dhb]V; ester 8-C)	2.95E−06 Molar	1440 nM	6040 nM	1420 nM	2.77E−06 Molar	5370 nM	1.76E−06 Molar	691 nM	4500 nM	226 nM	6.11E−07 Molar	6710 nM	906 nM	5090 nM	2.14E−06 Molar	906 nM	2.20E−06 Molar	5320 nM	292 nM	6710 nM	TGI SK-BR-3 (SK-BR-3): 6.13E−07 Molar; GI50 (IGROV-1): 415 nM; LC50 (concentration causing 50% net cell killing) (IGROV-1): 6710 nM; TGI IGROV (IGROV-1): 1.70E−06 Molar; GI50 (IGROV-ET): 926 nM; TGI IGROV-ET (IGROV-ET): 2.48E−06 Molar; CC50 (IGROV-ET): 6620 nM; GI50 (HeLa): 191 nM; TGI HELA (HeLa): 4.95E−07 Molar; CC50 (HeLa): 5790 nM; GI50 (HeLa-APL): 1190 nM; TGI HELA-APL (HeLa-APL): 2.59E−06 Molar; CC50 (HeLa-APL): 5660 nM; GI50 (K-562): 1840 nM; TGI K-562 (K-562): 3.24E−06 Molar; CC50 (K-562): 5720 nM; GI50 (PANC-1): 1820 nM; TGI PANC-1 (PANC-1): 4.89E−06 Molar; CC50 (PANC-1): 6710 nM
